Holding throughout (format): physicochemical
A short description of series [1]: Kinetic solubility studies in FaSSIF and FeSSIF. The note with it: FeSSIF. The procedure: The solubility of the dimesylate (Pattern B) and mono-HCl salts of Compound A was determined in FaSSIF (pH 6.5) at 37° C. after a slurry time of 5, 20 and 40 minutes. FaSSIF was warmed to 37° C. and added to a vial of ca. 9 mg of the salt to mark t=0. The mixture was kept stirring at 37° C. and a sample drawn with a syringe at t+5, 20 and 40 minutes. The samples were syringe filtered and the filtrate was diluted 2× to ensure no precipitation while waiting for HPLC analysis. The pH of the solution collected at 40 minutes was measured. The slurry was sampled again the following day and the supernatant from syringe filtration was analyzed directly by HPLC without dilution. The same experiment was run with FeSSIF (pH 5.0).

Series [2] is described as follows: Equilibrium solubility in simulated fluids and water at 37° C. The note with it: for comments / Concentration: 24 hrs; for Concentration: mg of Compound A (free base); for Concentration / pH (24 hr): dimesylate. The procedure:
The solubility Compound A⋅2MSA, Patterns A, B and I, was measured in water, fasted state simulated gastric fluid (FaSSGF) and fasted state simulated intestinal fluid (FaSSIF) at 37° C. by slurrying in the respective media for 24 hours. 1.5 mL of the fluid was stirred at 37° C. About 5 mg of the specified solid was added to FaSSIF and a thin slurry was immediately formed. As a test, approximately 80 and 60 mg of Pattern A was added to 1.5 mL of water and FaSSGF, respectively without formation of a slurry. Therefore, about 10 mg of the desired Pattern was added to water and FaSSGF solutions. The samples were allowed to stir at 37° C. for 24 hrs. The stir bars were removed from the FaSSIF vials and the solids allowed to settle for 0.5 hours at 37° C. The supernatant/solutions were syringe filtered and recovered for analysis by HPLC as well as for pH measurement.

Series [3] in a line: Dynamic Vapor Sorption (DVS). The conditions noted are these: between 2% and 95% Relative Humidity (RH); dimesylate. How it is done: Dynamic Vapor Sorption (DVS) was done using a DVS Intrinsic 1. The sample is loaded into a sample pan and suspended from a microbalance. A typical sample mass for DVS measurement is 25 mg. Nitrogen gas bubbled through distilled water provides the desired relative humidity.
A typical measurement comprises the steps: • 1—Equilibrate at 50% RH • 2-50% to 2%. (50%, 40%, 30%, 20%, 10% and 2%) • a. Hold minimum of 5 mins and maximum of 240 minutes at each humidity. The pass criteria is less than 0.002% change • 3-2% to 95% (2%, 10%, 20%, 30%, 40%, 50%, 60%, 70%, 80%, 90%, 95%) • a. Hold minimum of 5 mins and maximum of 240 minutes at each humidity. The pass criteria is less than 0.002% change • 4-95% to 2% (95%, 80%, 70%, 60%, 50%, 40%, 30%, 20%, 10%, 2%) • a. Hold minimum of 5 mins and maximum of 240 minutes at each humidity. The pass criteria is less than 0.002% change • 5-2% to 50% (2%, 10%, 20%, 30%, 40%, 50%) • a. Hold minimum of 5 mins and maximum of 240 minutes at each humidity. The pass criteria is less than 0.002% change Dynamic Vapor Sorption Isotherm Plots of Solid Forms of Compound A⋅2MSA

A short description of series [4]: Stability of XRPD pattern on drying. The note with it: for XRPD pattern upon drying: dimesylate. The procedure: Short term slurries were carried out at two temperatures in 14 solvents. About 25 mg solid was added to a 2 mL vial followed by 0.70 mL of solvent. If all solids dissolved, more solid was added until a slurry was formed within reason. Slurries were stirred at constant temperature for four days (ambient temperature, 21-23° C.; or high temperature, 50° C.). After stirring for four days, solids were allowed to settle and were then recovered for XRPD analysis. XRPD analysis was performed on the wet cake, and if a new pattern was observed, the sample was dried in a vacuum oven at 50° C. for a minimum of 4 hours, then the dried sample was analyzed by XRPD.
Stability on Drying: A sample of Pattern B was prepared on an XRPD sample holder and analysed by XRPD to create a baseline. The disk was then left in a vacuum oven at 50° C. under static vacuum for 3 days. On the third day, the sample was removed from the oven and the “dry” pattern was recorded immediately.
(§1) Compound A⋅2MSA (Pattern A) was slurried in EtOH overnight at room temperature (ca. 16 hours). […] The bulk was dried in a vacuum oven at 50° C. under dynamic vacuum for 4.5 hours. The dried solids were removed from the oven and a “dry” XRPD analysis was collected.

Series [5] in a line: Storage at ambient conditions (XRPD). How it is done:
Characterization after storage under ambient conditions: Pattern B was left at ambient conditions (21-22° C., 10-40% RH) for a week then characterized by)(RFD, TGA/DSC, and water content measured by Karl-Fischer titration. […] The water content was confirmed by KF titration which yielded a value of 4.20 wt. %.
Compound A⋅2MSA (Pattern A, 0.2622 g) was added to a 20 mL vial with a stir bar. Fifteen volumes (3.93 mL) of EtOH was added and the slurry was stirred overnight (˜20 hours). The slurry was sampled to confirm the correct pattern was generated, then the solids were collected by filtration. The resultant yellow solid was dried in a vacuum oven at 50° C. under dynamic vacuum for 2 hours, then under static vacuum overnight (˜16 hours) to yield 0.2015 g (77% yield). The in-situ sample drawn was dried for 3 hours then the solid was used for characterization by solution ^1H-NMR spectroscopy and simultaneous TGA/DSC. The bulk was dried overnight and used for stand-alone DSC, and thermal treatment.
as §1
Compound A⋅2MSA (Pattern A, 0.2659 g) was added to a 20 mL vial with a stir bar. Twenty-five volumes (6.65 mL) of ACN was added and the slurry was stirred overnight (˜20 hours). The slurry was sampled to confirm the correct pattern was generated, then the solids were collected by filtration. The resultant yellow solid was dried in a vacuum oven at 50° C. under dynamic vacuum for 2 hours, then under static vacuum overnight (˜16 hours) to yield 0.2255 g (85% yield). The sample drawn was dried for 3 hours then the solid was used for characterization by solution ^1H-NMR spectroscopy and simultaneous TGA/DSC. The bulk was dried overnight and used for stand-alone DSC.

Where [6] appears, read: solids from short term slurries, vacuum oven at 50° C., minimum of 4 hours.
Setting [7] is: solids from amorphous slurry or antisolvent experiments.

Here are results for eleven compounds from patent US12617767B2, “Crystalline forms of somatostatin modulators” (Crinetics Pharmaceuticals, Inc., priority 2019, dated 2026).

Marks after values point to notes of the source that are not given here. Some results are limits rather than exact numbers.

With `CS(=O)(=O)O.CS(=O)(=O)O.N#Cc1cccc(-c2ccc3ncc(-c4cc(F)cc(F)c4)c(N4CCC(N)CC4)c3c2)c1O` [Compound A⋅2MSA, 3-(4-(4-aminopiperidin-1-yl)-3-(3,5-difluorophenyl)quinolin-6-yl)-2-hydroxybenzonitrile dimesylate], in series [1], the “solubility relative to the HCl salt” value came to 12 ×.
`CS(=O)(=O)O.CS(=O)(=O)O.N#Cc1cccc(-c2ccc3ncc(-c4cc(F)cc(F)c4)c(N4CCC(N)CC4)c3c2)c1O` [Pattern A, 3-(4-(4-aminopiperidin-1-yl)-3-(3,5-difluorophenyl)quinolin-6-yl)-2-hydroxybenzonitrile dimesylate]: the “amount added to 1.5 mL without formation of a slurry” value in series [2] (FaSSGF) is listed as about 60 mg; in series [2] (water), “approximately 80 mg”. For the same compound, the “reversible water uptake (DVS)” value in series [3] amounted to 9.8 % w/w. In addition, the “XRPD pattern upon drying” value in series [4] (setting [6]) is “stable upon drying”.
Take `CS(=O)(=O)O.CS(=O)(=O)O.N#Cc1cccc(-c2ccc3ncc(-c4cc(F)cc(F)c4)c(N4CCC(N)CC4)c3c2)c1O` [Pattern C, 3-(4-(4-aminopiperidin-1-yl)-3-(3,5-difluorophenyl)quinolin-6-yl)-2-hydroxybenzonitrile dimesylate]: the figures for the comments result in series [2] (FaSSGF (pH 1.70)), in series [2] (FaSSIF (pH 6.48)) and in series [2] (water) were “dissolved”, “disproportionated” and “dissolved”, respectively. The Concentration in series [2] (FaSSGF (pH 1.70), above calibration range) is >7.75^b mg/mL; in series [2] (FaSSIF (pH 6.48)) it was 0.010 mg/mL; in series [2] (water, above calibration range), >6.59^b mg/mL. For the same compound, the “pH (24 hr)” value in series [2] (FaSSGF (pH 1.70)) is given as 1.84; in series [2] (FaSSIF (pH 6.48)) it was 6.06; in series [2] (water), 3.09. Besides, the “XRPD pattern upon drying” value in series [4] (setting [6]) is on record as “stable upon drying”. Moreover, the “XRPD pattern after drying” value in series [4] (vacuum oven at 50° C. under dynamic vacuum for 4.5 hours) was “a combination of Patterns C and I”. Further, in series [5] (24 hours), the “XRPD pattern of wet sample left at ambient conditions” value is “did not change”. Moreover, the “XRPD pattern after storage at ambient conditions” value in series [5] (bulk, 6 days at ambient conditions, dimesylate) was “a pattern resembling Pattern I”.
As to `CS(=O)(=O)O.CS(=O)(=O)O.N#Cc1cccc(-c2ccc3ncc(-c4cc(F)cc(F)c4)c(N4CCC(N)CC4)c3c2)c1O` [Pattern D, 3-(4-(4-aminopiperidin-1-yl)-3-(3,5-difluorophenyl)quinolin-6-yl)-2-hydroxybenzonitrile dimesylate], the “XRPD pattern upon drying” value in series [4] (setting [6]) is listed as “converted to Pattern A”.
The same measure, in the same setting: under `CS(=O)(=O)O.CS(=O)(=O)O.N#Cc1cccc(-c2ccc3ncc(-c4cc(F)cc(F)c4)c(N4CCC(N)CC4)c3c2)c1O` [Pattern E, 3-(4-(4-aminopiperidin-1-yl)-3-(3,5-difluorophenyl)quinolin-6-yl)-2-hydroxybenzonitrile dimesylate] stands “converted to Pattern A”; under `CS(=O)(=O)O.CS(=O)(=O)O.N#Cc1cccc(-c2ccc3ncc(-c4cc(F)cc(F)c4)c(N4CCC(N)CC4)c3c2)c1O` [Pattern F, 3-(4-(4-aminopiperidin-1-yl)-3-(3,5-difluorophenyl)quinolin-6-yl)-2-hydroxybenzonitrile dimesylate], “converted to Pattern I”.
`CS(=O)(=O)O.CS(=O)(=O)O.N#Cc1cccc(-c2ccc3ncc(-c4cc(F)cc(F)c4)c(N4CCC(N)CC4)c3c2)c1O` [Pattern G, 3-(4-(4-aminopiperidin-1-yl)-3-(3,5-difluorophenyl)quinolin-6-yl)-2-hydroxybenzonitrile dimesylate]: the “XRPD pattern upon drying” value in series [4] (setting [6]) was “converted to Pattern I”.
For the compound `CS(=O)(=O)O.CS(=O)(=O)O.N#Cc1cccc(-c2ccc3ncc(-c4cc(F)cc(F)c4)c(N4CCC(N)CC4)c3c2)c1O` [Pattern H, 3-(4-(4-aminopiperidin-1-yl)-3-(3,5-difluorophenyl)quinolin-6-yl)-2-hydroxybenzonitrile dimesylate], the “XRPD pattern upon drying” value in series [4] (setting [6]) is listed as “converted to Pattern I”.
In the case of `CS(=O)(=O)O.CS(=O)(=O)O.N#Cc1cccc(-c2ccc3ncc(-c4cc(F)cc(F)c4)c(N4CCC(N)CC4)c3c2)c1O` [Pattern M, 3-(4-(4-aminopiperidin-1-yl)-3-(3,5-difluorophenyl)quinolin-6-yl)-2-hydroxybenzonitrile dimesylate], the “XRPD pattern upon drying” value in series [4] (setting [7]) was “lost crystallinity upon drying”.
With `CS(=O)(=O)O.CS(=O)(=O)O.N#Cc1cccc(-c2ccc3ncc(-c4cc(F)cc(F)c4)c(N4CCC(N)CC4)c3c2)c1O` [Pattern N, 3-(4-(4-aminopiperidin-1-yl)-3-(3,5-difluorophenyl)quinolin-6-yl)-2-hydroxybenzonitrile dimesylate], the “XRPD pattern upon drying” value in series [4] (setting [7]) is “stable upon drying”.
For the compound `CS(=O)(=O)O.CS(=O)(=O)O.N#Cc1cccc(-c2ccc3ncc(-c4cc(F)cc(F)c4)c(N4CCC(N)CC4)c3c2)c1O` [Pattern O, 3-(4-(4-aminopiperidin-1-yl)-3-(3,5-difluorophenyl)quinolin-6-yl)-2-hydroxybenzonitrile dimesylate], in series [4] (setting [7]), the “XRPD pattern upon drying” value is “stable upon drying”.
